Literature values as cited in patent US10894017B1 (XSPRAY PHARMA AB, priority 2019, dated 2021).

Key:
[1] = clinical bio-equivalence studies
[2] = high permeability and low solubility
[3] = within and between patients

CC(O)CO.Cc1nc(Nc2ncc(C(=O)Nc3c(C)cccc3Cl)s2)cc(N2CCN(CCO)CC2)n1 [1,2-propanediol solvate, dasatinib 1,2-propanediol solvate]
AUC compared to Sprycel [1]: higher AUC

Cc1nc(Nc2ncc(C(=O)Nc3c(C)cccc3Cl)s2)cc(N2CCN(CCO)CC2)n1 [Dasatinib monohydrate]
BCS classification [2]: BCS II

Cc1nc(Nc2ncc(C(=O)Nc3c(C)cccc3Cl)s2)cc(N2CCN(CCO)CC2)n1 [anhydrate form N-6]
AUC compared to Sprycel [1]: higher AUC

Cc1nc(Nc2ncc(C(=O)Nc3c(C)cccc3Cl)s2)cc(N2CCN(CCO)CC2)n1 [dasatinib]
coefficient of variation of AUC [3]: up to 100% | coefficient of variation of Cmax [3]: up to 100%
